In the NIST ThermoML archive (doi:10.1021/acs.jced.7b00690):

Assay: mn = molality of the nth substance listed, in mol/kg
Conditions: 100 kPa, Liquid, Vibrating tube method

O=C([O-])C(=O)[O-].[Na+].[Na+] [sodium oxalate] + O
Conditions | mass density [kg/m3]
298.15 K, m1 = 0.263 | 1025.1
298.15 K, m1 = 0.265 | 1020.9
298.15 K, m1 = 0.272 | 1020.9
323.15 K, m1 = 0.317 | 1020.3
323.15 K, m1 = 0.334 | 1022.4
343.15 K, m1 = 0.385 | 1016.5
